Molecules are shown by their SMILES.

The test system of the first experiment is HCV 1b genotype replicon. Description: HCV replicon assay (qRT-PCR or luciferase), genotype 1b. The settings on record: Hepatitis C virus, Table 11, qRT-PCR or luciferase assay, read-out: Genotype-1b replicon EC50 Range. The class given is cell-based. From the text: HCV replicon cell lines (kindly provided by R. Bartenschlager) isolated from colonies as described by Lohman et. al. (Lohman et al. (1999) Science 285: 110-113, expressly incorporated by reference in its entirety) and used for all experiments. The HCV replicon has the nucleic acid sequence set forth in EMBL Accession No.: AJ242651, the coding sequence of which is from nucleotides 1801 to 8406.
The coding sequence of the published HCV replicon was synthesized and subsequently assembled in a modified plasmid pBR322 (Promega, Madison, Wis.) using standard molecular biology techniques. One replicon cell line (“SGR 11-7”) stably expresses HCV replicon RNA which consists of (i) the HCV 5′UTR fused to the first 12 amino acids of the capsid protein, (ii) the neomycin phosphotransferase gene (neo), (iii) the IRES from encephalomyocarditis virus (EMCV), and (iv) HCV […] to NSSB genes and the HCV 3′UTR. Another replicon cell line (“Huh-luc/neo-ET”) described by Vrolijk et. al. (Vrolijk et. al. (2003) Journal of Virological Methods 110:201-209, expressly incorporated by reference in its entirety) stably expresses HCV replicon RNA which consists of (i) the HCV 5′UTR fused to the first 12 amino acids of the capsid protein, (ii) the firefly luciferase reporter gene, (iii) the ubiquitin gene, (iv) the neomycin phosphotransferase gene (neo), (v) the IRES from encephalomyocarditis virus (EMCV), and (vi) HCV NS3 to NS5B genes that harbor cell culture adaptive mutations (E1202G, T1280I, K1846T) and the HCV 3′UTR.
These cell lines were maintained at 37° C., 5% CO2, 100% relative humidity in DMEM (Cat#11965-084, Invitrogen), with 10% fetal calf serum (“FCS”, Invitrogen), 1% non-essential amino acids (Invitrogen), 1% of Glutamax (Invitrogen), 1% of 100× penicillin/streptomycin (Cat#15140-122, Invitrogen) and Geneticin (Cat#10131-027, Invitrogen) at 0.75 mg/ml or 0.5 mg/ml for 11-7 and Huh-luc/neo-ET cells, respectively.
EC50 values of single agent compounds and combinations were determined by HCV RNA detection using quantitative RT-PCR, according to the manufacturer's instructions, with a TAQMAN® One-Step RT-PCR Master Mix Reagents Kit (Cat#AB 4309169, Applied Biosystems) on an ABI Model 7500 thermocycler. The TaqMan primers used for detecting and quantifying HCV RNA were obtained from Integrated DNA Technologies. HCV RNA was normalized to GAPDH RNA levels in drug-treated cells, which is detected and quantified using the Human GAPDH Endogenous Control Mix (Applied Biosystems, AB 4310884E). Total cellular RNA is purified from 96-well plates using the RNAqueous 96 kit (Ambion, Cat# AM1812). Chemical agent cytotoxicity is evaluated using an MTS assay according to the manufacturer's directions (Promega).
Since clinical drug resistance often develops in viral infections following single agent therapies, there is a need to assess the additive, antagonistic, or synergistic properties of combination therapies. We used the HCV replicon system to assess the potential use of the compound of the present invention or in combination therapies with Interferon alpha, cyclosporine analogs and inhibitors targeting other HCV proteins. The acute effects of a single or combinations of drugs are studied in the “Huh-luc/neo-ET” replicon with each chemical agent titrated in an X or Y direction in a 6 point two-fold dilution curve centered around the EC50 of each drug. Briefly, replicon cells are seeded at 7,000 cells per well in 90 ul DMEM (without phenol red, Invitrogen Cat.#31053-036) per well with 10% FCS, 1% non-essential amino acids, 1% of Glutamax and 1% of 100× penicillin/streptomycin and incubated overnight at 37° C., 5% CO2, 100% relative humidity. […]
(In general: In antiviral work, replicon cells carry a viral genome segment that copies itself.)
For the molecule `COC(=O)N[C@H](C(=O)N1CCC[C@H]1c1nc(-c2ccc(C#Cc3cc4nc([C@@H]5CCCN5C(=O)[C@@H](NC(=O)OC)C(C)C)[nH]c4cc3Cl)cc2)c[nH]1)C(C)C` [Example 485], the EC50 was under 1 nM.

In the case of `COC(=O)N[C@H](C(=O)N1CCC[C@H]1c1nc(-c2ccc(C#Cc3ccc4[nH]c([C@@H]5CCCN5C(=O)[C@@H](OC(=O)OC)C(C)C)nc4c3)cc2)c[nH]1)C(C)C` [Example 480], the EC50 is under 1 nM.

In the case of `COC(=O)N[C@H](C(=O)N1C[C@H](O)C[C@H]1c1ncc(-c2ccc(C#Cc3ccc4nc([C@@H]5CCCN5C(=O)[C@@H](NC(=O)OC)C(C)C)[nH]c4c3)cc2)[nH]1)C(C)C` [Example 535], the EC50 was under 1 nM.

With `COC(=O)N[C@@H](C(=O)N1CCC[C@H]1c1nc2ccc(C#Cc3ccc(-c4cnc([C@@H]5CCCN5C(=O)[C@H](NC(=O)OC)c5ccccc5)o4)cc3)cc2[nH]1)c1ccccc1` [Example 533], the EC50 was under 1 nM.

Regarding `COC(=O)N[C@H](C(=O)N1CCC[C@H]1c1nc(-c2ccc(/C=C/c3ccc4[nH]c([C@@H]5CCCN5C(=O)[C@@H](NC(=O)OC)C(C)C)nc4c3)cc2)c[nH]1)C(C)C` [Example 492], the EC50 was under 1 nM.

Regarding `COC(=O)N[C@H](C(=O)N1CCC[C@H]1c1nc(-c2ccc(CCCc3ccc4[nH]c([C@@H]5CCCN5C(=O)[C@@H](NC(=O)OC)C(C)C)nc4c3)s2)c[nH]1)C(C)C` [Example 457], the EC50 is under 1 nM.

As for `COC(=O)N[C@H](C(=O)N1CCC[C@H]1c1nc(-c2ccc(C#Cc3ccc4[nH]c([C@@H]5CC6(CC6)CN5C(=O)[C@@H](NC(=O)OC)C(C)C)nc4c3)cc2)c[nH]1)C(C)C` [Example 521], the EC50 is under 1 nM.

For the molecule `COC(=O)N[C@H](C(=O)N1CCC[C@H]1c1nc(-c2ccc3cc(-c4ccc5[nH]c([C@@H]6CCCN6C(=O)[C@@H](NC(=O)OC)C(C)C)nc5c4)ccc3c2)c[nH]1)C(C)C` [Example 459], the EC50 is under 1 nM.

On to `COC(=O)N[C@H](C(=O)N1CCC[C@H]1c1nc(-c2ccc(/C=C/c3ccc4[nH]c([C@@H]5CCCN5C(=O)[C@@H](NC(=O)OC)C(C)C)nc4c3)s2)c[nH]1)C(C)C` [Example 453], for which the half-maximal effective concentration (EC50) is under 1 nM.

In the case of `COC(=O)N[C@H](C(=O)N1CCC[C@H]1c1nc(-c2ccc(CCc3ccc4nc([C@@H]5CCCN5C(=O)[C@@H](NC(=O)OC)C(C)C)[nH]c4c3)s2)c[nH]1)C(C)C` [Example 454], the EC50 was under 1 nM.

For `COC(=O)N[C@H](C(=O)N1CCC[C@H]1c1ncc(-c2ccc(C#Cc3ccc4nc([C@@H]5CCCN5C(=O)[C@@H](NC(=O)OC)C(C)(C)O)[nH]c4c3)cc2)[nH]1)C(C)C` [Example 530], the EC50 was under 1 nM.

As for `CCC[C@H](NC(=O)OC)C(=O)N1CCC[C@H]1c1nc2cc(C#Cc3ccc(-c4c[nH]c([C@@H]5CCCN5C(=O)[C@@H](NC(=O)OC)C(C)C)n4)cc3)ccc2[nH]1` [Example 503], the EC50 is under 1 nM.

For the molecule `COC(=O)N[C@@H](C(=O)N1CCC[C@H]1c1nc(-c2ccc(C#Cc3ccc4[nH]c([C@@H]5CCCN5C(=O)[C@H](NC(=O)OC)c5ccccc5)nc4c3)cc2)n[nH]1)c1ccccc1` [Example 442], the EC50 was under 1 nM.

As to `COC(=O)N[C@H](C(=O)N1CCC[C@H]1c1ncc(-c2ccc(C#Cc3ccc4nc([C@]5(C)CCCN5C(=O)[C@@H](NC(=O)OC)C(C)C)[nH]c4c3)cc2)[nH]1)C(C)C` [Example 539], the EC50 is under 1 nM.

`COC(=O)N[C@H](C(=O)N1CCC[C@H]1c1ncc(-c2ccc(C#Cc3ccc4nc([C@@H]5C[C@H]6C[C@H]6N5C(=O)[C@@H](NC(=O)OC)C(C)C)[nH]c4c3)cc2)[nH]1)C(C)C` [Example 541]: the EC50 is under 1 nM.

Turning to `COC(=O)N[C@H](C(=O)N1CCC[C@H]1c1nc(-c2ccc(C#Cc3ccc4[nH]c([C@@H]5CCCN5C(=O)[C@H](NC(=O)OC)c5ccccc5)nc4c3)cc2)c[nH]1)C(C)C` [Example 504], the EC50 is under 1 nM.

On to `COC(=O)N[C@H](C(=O)N1CC2(CC2)C[C@H]1c1nc(-c2ccc(C#Cc3ccc4[nH]c([C@@H]5CCCN5C(=O)[C@@H](NC(=O)OC)C(C)C)nc4c3)cc2)c[nH]1)C(C)C` [Example 523], for which the EC50 is under 1 nM.

Take `COC(=O)N[C@H](C(=O)N1CCC[C@H]1c1nc(-c2ccc(CCc3ccc4[nH]c([C@@H]5CCCN5C(=O)[C@@H](NC(=O)OC)C(C)C)nc4c3)cc2)c[nH]1)C(C)C` [Example 494]: the EC50 was under 1 nM.

`COC(=O)N[C@H](C(=O)N1CCC[C@H]1c1nc2cc(C#Cc3ccc(-c4c[nH]c([C@@H]5CCCN5C(=O)[C@@H](c5ccccc5)C(C)C)n4)cc3)ccc2[nH]1)C(C)C` [Example 512]: the EC50 was under 1 nM.

In the case of `COC(=O)N[C@H](C(=O)N1CCC[C@H]1c1ncc(-c2ccc(C#Cc3ccc4nc([C@@H]5C[C@@H](Oc6ccccc6)CN5C(=O)[C@@H](NC(=O)OC)C(C)C)[nH]c4c3)cc2)[nH]1)C(C)C` [Example 537], the concentration for a half-maximal effect (EC50) was under 1 nM.

In the case of `COC(=O)N[C@H](C(=O)N1CCC[C@H]1c1nc(-c2ccc(C#Cc3cc(F)c4[nH]c([C@@H]5CCCN5C(=O)[C@@H](NC(=O)OC)C(C)C)nc4c3)cc2)c[nH]1)C(C)C` [Example 483], the EC50 was under 1 nM.

Turning to `COC(=O)N[C@H](C(=O)N1CCC[C@H]1c1nc2cc(-c3ccc4cc(-c5c[nH]c([C@@H]6CCCN6C(=O)[C@@H](NC(=O)OC)[C@@H](C)OC)n5)ccc4c3)ccc2[nH]1)[C@@H](C)O` [Example 465], the EC50 is under 1 nM.

Turning to `COC(=O)N[C@H](C(=O)N1CCC[C@H]1c1nc(-c2ccc3cc(-c4ccc5[nH]c([C@@H]6CCCN6C(=O)[C@H](NC(=O)OC)c6ccccc6)nc5c4)ccc3c2)c[nH]1)[C@@H](C)OC` [Example 463], the EC50 was under 1 nM.

For the molecule `COC(=O)N[C@@H](C(=O)N1CCC[C@H]1c1cc(-c2ccc(CCc3ccc4[nH]c([C@@H]5CCCN5C(=O)[C@H](NC(=O)OC)c5ccccc5)nc4c3)cc2)n[nH]1)c1ccccc1` [Example 446], the concentration for a half-maximal effect (EC50) was under 1 nM.

Turning to `COC(=O)N[C@H](C(=O)N1CCC[C@H]1c1nc(-c2ccc(C#Cc3ccc4[nH]c([C@@H]5CCCN5C(=O)[C@H](NC(=O)OC)C(C)C)nc4c3)cc2)c[nH]1)C(C)C` [Example 508], the EC50 is under 1 nM.

Regarding `CC[C@H](C)[C@H](NC(=O)OC)C(=O)N1CCC[C@H]1c1ncc(-c2ccc(C#Cc3ccc4nc([C@@H]5CCCN5C(=O)[C@@H](NC(=O)OC)[C@@H](C)CC)[nH]c4c3)cc2)[nH]1` [Example 526], the concentration giving a half-maximal response (EC50) is under 1 nM.

As for `COC(=O)N[C@H](C(=O)N1CCC[C@H]1c1nc(-c2ccc3cc(/C=C/c4ccc5[nH]c([C@@H]6CCCN6C(=O)[C@@H](NC(=O)OC)C(C)C)nc5c4)ccc3c2)c[nH]1)C(C)C` [Example 477], the concentration giving a half-maximal response (EC50) is under 1 nM.

The experiment is the same for the next values; noted with them: Hepatitis C virus, Table 12, numeric values, read-out: 1b EC50.
In the case of `COC(=O)N[C@H](C(=O)N1C[C@H](C)C[C@H]1c1ncc(-c2ccc(C#Cc3ccc4nc([C@@H]5C[C@@]6(CCCO6)CN5C(=O)[C@@H](NC(=O)OC)C(C)C)[nH]c4c3)cc2)[nH]1)C(C)C` [Example 628], the 50% effective concentration (EC50) was determined as 0.009 nM.

Turning to `COC(=O)N[C@H](C(=O)N1CCC[C@H]1c1ncc(-c2ccc(C#Cc3ccc4nc([C@@H]5C[C@@]6(CCCCO6)CN5C(=O)[C@@H](NC(=O)OC)C(C)C)[nH]c4c3)cc2)[nH]1)C(C)C` [Example 632], the EC50 came to 0.013 nM.

Turning to `COC(=O)N[C@H](C(=O)N1CC2(CC2)C[C@H]1c1nc(-c2ccc(C#Cc3ccc4[nH]c([C@@H]5CC6(CC6)CN5C(=O)[C@@H](NC(=O)OC)C(C)C)nc4c3)cc2)c[nH]1)C(C)C` [Example 548], the EC50 amounted to 0.004 nM.

By EC50 is commonly meant the midpoint of the concentration-response curve.

Source of the values: US9765087B2, “Benzimidazole derivatives” (ENANTA PHARMACEUTICALS, INC., priority 2009, dated 2017).
